We go through two molecules from patent US20030133908A1, “Treatment for intracranial tumors” (priority 2002, published 2003).

One experiment concerns RG2 glioma cells. As to the kind of experiment: Microglia-mediated tumor cytotoxicity on co-cultured RG2 cells (modified MTT reduction assay). It counts as cell-based, rat. As to conditions: L-NMA exposure. On the procedure:
Co-cultures of microglia and RG2 cells were established and cytotoxicity assays were carried out as follows: isolated rat microglial cells (5×10^5 cells/well) were added to a 96-well plate containing 200 μl/well of complete medium. After allowing the cells to adhere for one hour, the medium was aspirated and the appropriate number of RG2 cells (from 2.5×10^4 to 1×10^6 to yield effector:target [E:T] ratios from 0.5:1 to 20:1) was added to the wells in 200 μl of fresh, complete medium. As controls, glioma cells and microglia were cultured separately in other wells of the plate. Microglia-mediated tumor cytotoxicity was measured using a modified MTT reduction assay.
All experiments were performed in quadruplicate. Some co-culture experiments were carried out on glass cover slips to provide visual documentation of cytotoxicity. The cover slips were immersed in paraformaldehyde solution and then subjected to cresyl violet staining.
To determine the contributions of TNF-α and NO to the tumoricidal activity of microglia, MTT cytotoxicity assays were carried out in the presence of TNF-α binding protein (TNF-bp; an inhibitor of TNF-α) and N^G-monomethyl-L-arginine (L-NMA; an inhibitor of NO production).
The effects of TGF-β on microglial tumor cytotoxicity were also investigated in MTT cytotoxicity assays in the presence of TGF-β.
A general note: Tetrazolium dyes change colour on reduction, which living cells bring about.

Experiment [1] deals with rat microglia. Put plainly: TNF-α production by cultured rat microglia (rat-specific TNF-α ELISA). The format is cell-based. The settings on record: in the presence of TGF-β. How it is done:
(§1) The ability of cultured rat microglia to produce the soluble cytotoxic agents, TNF-αand nitric oxide, was examined. Rat microglia were harvested and plated in a 96-well plate at a density of 5×10^5 cells/well in 200 μl of serum-free CellGro complete medium (MediaTech, Inc.). In some wells, the medium was supplemented with different concentrations of LPS alone (from E. coli serotype […]; Sigma) while others were supplemented with a combination of LPS and recombinant rat IFN-γ (100 U/ml; R&D Systems). After 24 hours of incubation at 37° C., TNF-α protein in the supernatant of each well was quantified using a Cytoscreen rat-specific TNF-α ELISA kit (Biosource Intl., Camarillo, Calif.), and NO (nitrite) levels in the supernatant of each well were determined using the Griess reaction. All experiments were carried out in triplicate.
On the technique in general: In an ELISA, binding on a coated surface is turned into a signal by an enzyme label.

The test system of experiment [2] is rat microglia. Put plainly: Nitric oxide (nitrite) production by cultured rat microglia (Griess reaction). The format is cell-based. As to conditions: in the presence of TGF-β. On the procedure: as §1

For `CNC(=N)NCCC[C@H](N)C(=O)O` [L-NMA, N^G-monomethyl-L-arginine], in the experiment with RG2 glioma cells, the “killing of co-cultured RG2 by LPS/IFN-γ stimulated microglia” value is listed as “significantly inhibited”.
TGF-β: the “microglial production of TNF-α” value with rat microglia [1] is on record as “concurrent decreases”. Moreover, in the experiment with rat microglia [2], the “microglial production of NO” value was “concurrent decreases”.
